The target in this data set is T1, CD137 (Homo sapiens, UniProt Q07011).
T1 construct: host or cells: Jurkat reporter cells from the Promega kit, co-cultured with tumour cells (NCI-H292, PC3 or RKO)
Description: CD137 reporter assay co-culture with RKO tumour cells (PD-L1/CD137 heterotandems). The following applies: Jurkat CD137 reporter cells co-cultured with RKO (PD-L1), 6 h; read-out: Fold Induction over background. The data set is classed as cell-based. The protocol:
Culture medium, referred to as R1 media, is prepared by adding 1% FBS to RPMI-1640 (component of Promega kit CS196005). Serial dilutions of test articles in R1 are prepared in a sterile 96 well-plate. Add 25 μL per well of test articles or R1 (as a background control) to designated wells in a white cell culture plate. Tumour cells* are harvested and resuspended at a concentration of 400,000 cells/mL in R1 media. Twenty five (25) μL/well of tumour cells are added to the white cell culture plate. Jurkat cells (Promega kit CS196005, 0.5 mL) are thawed in the water bath and then added to 5 ml pre-warmed R1 media. Twenty five (25) μL/well of Jurkat cells are then added to the white cell culture plate. Incubate the cells and test articles for 6 h at 37° C., 5% CO2. At the end of 6 h, add 75 μL/well Bio-Glo™ reagent (Promega) and incubate for 10 min before reading luminescence in a plate reader (Clariostar, BMG). The fold change relative to cells alone (Jurkat cells+Cell line used in co-culture) is calculated and plotted in GraphPad Prism as log(agonist) vs response to determine EC50 (nM) and Fold Induction over background (Max).
The tumour cell type used in co-culture for EphA2 is PC3. The tumour cell type used in co-culture for PD-L1 is RKO.
A summary of the fold induction induced by PD-L1/CD137 heterotandem peptides in the CD137 reporter coculture assay with RKO cells is shown in Table 3.

*1 amine or outer side, *2 acyl side, *3 side chain or, on linkers, in order; H or OH if unused. Where a SMILES comes first, the peptide text is derived from it. Bridges are numbered along the chain shown (N, C = ends). Roman numbers before positions name the chains, in order. [ ]: non-standard residue; d: D form. TATA = O=C(CC[*:1])N1CN(C(=O)CC[*:2])CN(C(=O)CC[*:3])C1; X2 = O=C(CCOCCOCCOCCOCCOCCn1cc(CCC(=O)[*:2])nn1)[*:1]; hArg = N=C(N)NCCCC[C@H](N)C(=O)O; tBuAla = CC(C)(C)C[C@H](N)C(=O)O; Nle = CCCC[C@H](N)C(=O)O

T1 sequence (Q07011 24-255): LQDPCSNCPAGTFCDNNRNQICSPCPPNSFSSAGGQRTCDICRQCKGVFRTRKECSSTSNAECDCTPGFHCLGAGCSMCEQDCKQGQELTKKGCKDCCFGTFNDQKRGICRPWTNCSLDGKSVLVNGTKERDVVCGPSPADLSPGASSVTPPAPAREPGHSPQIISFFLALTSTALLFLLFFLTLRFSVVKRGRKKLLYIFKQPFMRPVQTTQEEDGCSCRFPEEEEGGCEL

In the case of `CCCC[C@@H]1NC(=O)[C@H](Cc2ccc(O)cc2)NC(=O)[C@@H]2CCCN2C(=O)[C@H](CC(=O)O)NC(=O)[C@H](C)NC(=O)[C@H](Cc2ccccc2)NC(=O)[C@@H]2CSCCC(=O)N3CN(CN(C3)C(=O)CCSC[C@@H](C(=O)N[C@@H](C)C(N)=O)NC1=O)C(=O)CCSC[C@H](NC(C)=O)C(=O)N[C@@H](CC(C)(C)C)C(=O)N1CCC[C@H]1C(=O)N[C@@H](CCC(=O)O)C(=O)N[C@H](CCCCNC(=O)CCc1cn(CCOCCOCCOCCOCCOCCC(=O)NCCCC[C@@H]3NC(=O)[C@H](CC(C)C)NC(=O)[C@H](CCCCNC(C)=O)NC(=O)[C@H](CCC(N)=O)NC(=O)[C@@H]4CSCCC(=O)N5CN(CN(C5)C(=O)CCSC[C@@H](C(=O)N5CCC[C@H]5C(=O)N[C@@H](CO)C(=O)N[C@@H](Cc5c[nH]cn5)C(N)=O)NC(=O)[C@H](CC(C)C)NC3=O)C(=O)CCSC[C@H](NC(=O)[C@H](CCCCNC(=N)N)NC(=O)[C@H](CC(=O)O)NC(C)=O)C(=O)N[C@@H](CO)C(=O)N[C@@H](C)C(=O)NCC(=O)N[C@@H](Cc3c[nH]c5ccccc35)C(=O)N[C@@H](CC(C)C)C(=O)N[C@@H]([C@@H](C)O)C(=O)N[C@@H](CCSC)C(=O)N4)nn1)C(=O)N1CCC[C@H]1C(=O)N[C@@H](Cc1ccc(O)cc1)C(=O)N2` [BCY12242] (I: Ac-D[hArg]CSAGWLTMCQK(Ac)LKLCPSH-NH2 / II: Ac-C[tBuAla]PE[dK]PYCFADPY[Nle]CA-NH2; linker I:3-I:11-I:17, II:1-II:8-II:15 via TATA; linker I:15-II:5 via X2), the fold induction amounted to 13.

Consider `CCCC[C@@H]1NC(=O)[C@H](Cc2ccc(O)cc2)NC(=O)[C@@H]2CCCN2C(=O)[C@H](CC(=O)O)NC(=O)[C@H](C)NC(=O)[C@H](Cc2ccccc2)NC(=O)[C@@H]2CSCCC(=O)N3CN(CN(C3)C(=O)CCSC[C@@H](C(=O)N[C@@H](C)C(N)=O)NC1=O)C(=O)CCSC[C@H](NC(C)=O)C(=O)N[C@@H](CC(C)(C)C)C(=O)N1CCC[C@H]1C(=O)N[C@@H](CCC(=O)O)C(=O)N[C@H](CCCCNC(=O)CCc1cn(CCOCCOCCOCCOCCOCCC(=O)NCCCC[C@@H]3NC(=O)[C@H](CCC(N)=O)NC(=O)[C@@H]4CSCCC(=O)N5CN(CN(C5)C(=O)CCSC[C@@H](C(=O)N5CCC[C@H]5C(=O)N[C@@H](CO)C(=O)N[C@@H](Cc5c[nH]cn5)C(N)=O)NC(=O)[C@H](CC(C)C)NC(=O)[C@H](Cc5c[nH]cn5)NC(=O)[C@H](CC(C)C)NC3=O)C(=O)CCSC[C@H](NC(=O)[C@H](CCCCNC(=N)N)NC(=O)[C@H](CC(=O)O)NC(C)=O)C(=O)N[C@@H](CO)C(=O)N[C@@H](C)C(=O)NCC(=O)N[C@@H](Cc3c[nH]c5ccccc35)C(=O)N[C@@H](CC(C)C)C(=O)N[C@@H]([C@@H](C)O)C(=O)N[C@@H](CCSC)C(=O)N4)nn1)C(=O)N1CCC[C@H]1C(=O)N[C@@H](Cc1ccc(O)cc1)C(=O)N2` [BCY12229] (I: Ac-D[hArg]CSAGWLTMCQKLHLCPSH-NH2 / II: Ac-C[tBuAla]PE[dK]PYCFADPY[Nle]CA-NH2; linker I:3-I:11-I:17, II:1-II:8-II:15 via TATA; linker I:13-II:5 via X2), for which the fold induction stood at 8.

The values are drawn from US11332500B2, “Heterotandem bicyclic peptide complexes” (BicycleTx Limited, priority 2019, dated 2022).
